# Laboratory results published in patent US7528113B2, “Method and composition for the treatment of adenoviral ocular infections” (priority 1999, dated 2009).
# Like-named read-outs stand apart in the source and are kept apart here.
# Tests used:
# [1] = tested on: Ad37 binding to Chang C conjunctival cells; test: microbe, parasite or virus in culture; type: cell-based, adenovirus; conditions: for Interference with the binding of Ad37 to sialic acid expressing cells: 160 mmol concentrations
# Source text: (§1) Interference of the binding of adenovirus subtype 37 (Ad37) with the first step cellular receptor was studied using dextran sulphate and glycosaminoglycans, such as heparin and heparan sulphates. […] It was thus confirmed that the cellular receptor for Ad37 is (2-3) linked sialic acid.
# The effect of glycoproteins to inhibit Ad37 binding to Chang C conjunctival cells was investigated using the following glycoproteins: fetuin, mucin, orosomucoid and glycophorin A. The results are presented in table 2.
# The inventors confirmed the inventive concept by determining the inhibition achieved with different carbohydrates, using adenovirus type 37 and Chang C conjunctival cells.
# All data are visualised as the dose required for 50% inhibition of adenovirus binding and the maximum inhibition of adenovirus binding.
# Ad37 virus = test: Binding of 125I-labeled Ad37 to glycosphingolipids; parameters: species or system adenovirus; conditions: preliminary results, thin layer chromatography, FIG. 3
# adenoviral adhesion = test: Inhibition of adenoviral adhesion by multivalent ligands; type: cell-based, adenovirus; conditions: multivalent ligand
# Source text: Monovalent analogues of the sialic acid receptor will have to cover most of the twelve fibres at each of the twelve comers of the virus particle to enable efficient blocking of the binding of the virus particle to the host cell receptors. Divalent or multivalent analogues will, by interacting with a few fibres, enable aggregation of numerous virus particles into a lattice. This will hamper or inhibit virus infection with a higher efficiency, i.e. more inhibition per μmole of ligand.
# [2] = tested on: adenovirus subtype 37 (Ad37); test: Interference of the binding of Ad37 with the first step cellular receptor; type: cell-based
# Source text: as §1
# [3] = tested on: adenovirus type 19a binding to Chang C conjunctival cells; test: Inhibition of adenovirus type 19a binding to Chang C conjunctival cells; type: cell-based
# [4] = tested on: adenovirus type 8 binding to Chang C conjunctival cells; test: Inhibition of adenovirus type 8 binding to Chang C conjunctival cells; type: cell-based
# [5] = tested on: Ad37 binding to Chinese hamster ovary cells; test: Ad37 binding to Chinese hamster ovary cells that do not express CAR; type: cell-based, adenovirus; conditions: Chinese hamster ovary cells not expressing CAR; see FIG. 2
# Source text: as §1
# [6] = tested on: Ad37 binding to human epithelial A549 cells; test: Ad37 binding to A549 cells; type: cell-based, adenovirus; conditions: pre-treatment / pre-incubation of the cells; FIG. 2
# Source text: Binding to human epithelial A549 cells was investigated. […] This means that Ad8, Ad19a and Ad37, but not types 9 and 19p infect A549 cells by binding to cell surface sialic acid.
# [7] = Chang cells, sialic acid carbohydrates, read-out: Concentration of carbohydrate causing 50% inhibition of Ad37 binding
# [8] = read-out: Concentration of carbohydrate causing 50% inhibition of Ad37 binding
# [9] = Chang cells, sialylated glycoproteins, read-out: Concentration of glycoprotein causing 50% inhibition of Ad37 binding
molecule,measurement,setting,value
"CC(=O)N[C@H]1[C@H]([C@H](O)[C@H](O)CO)O[C@@](O[C@H]2[C@@H](O)[C@@H](CO)O[C@@H](O[C@H]3[C@H](O[C@@H]4O[C@@H](C)[C@@H](O)[C@@H](O)[C@@H]4O)[C@@H](O)C(O)O[C@@H]3CO)[C@@H]2O)(C(=O)O)C[C@@H]1O (stereo partly drawn) [N-Acetyl Neuraminyl-3-Fucosyl Lactose, α-Neu-5-Ac-(2-3)-β-D-Gal(1-4)-(α-Fuc-(1-3))-Glc]",Inhibiting binding of Ad37 to sialic acid-expressing cells (in words),[1],effective in inhibiting binding
same,IC50,[1]; [7],5000 µM
CC(=O)N[C@H]1[C@H]([C@H](O)[C@H](O)CO)OC(O)(C(=O)O)C[C@@H]1O (stereo partly drawn) [N-acetyl-neuraminic acid],Inhibiting binding of Ad37 to sialic acid-expressing cells (in words),[1],effective in inhibiting binding
same,Maximal inhibition of Ad37 binding in %,[1]; 160 mM carbohydrate,82%
same,IC50,[1]; [8],18000 µM
O=C(CO)N[C@H]1[C@H]([C@H](O)[C@H](O)CO)OC(O)(C(=O)O)C[C@@H]1O (stereo partly drawn) [N-glycolyl-neuraminic acid],Inhibiting binding of Ad37 to sialic acid-expressing cells (in words),[1],effective in inhibiting binding
same,Maximal inhibition of Ad37 binding in %,[1]; 160 mM carbohydrate,91%
same,IC50,[1]; [8],40000 µM
"CC(=O)N[C@@H]1[C@@H](O)[C@@H](O)[C@@H](CO)O[C@@H]1O [acetyl galactose amine, reference compound]",Interference with the binding of Ad37 to sialic acid expressing cells,[1],did not interfere with the binding
"CC(=O)N[C@@H]1[C@@H](O)[C@H](O)[C@@H](CO)O[C@H]1O [acetyl glucose amine, reference compound]",Interference with the binding of Ad37 to sialic acid expressing cells,[1],did not interfere with the binding
"CC(=O)N[C@H]1[C@@H](O)[C@H](O)[C@@H](CO)O[C@@H]1O [acetyl mannose amine, reference compound]",Interference with the binding of Ad37 to sialic acid expressing cells,[1],did not interfere with the binding
"O=C[C@H](O)[C@@H](O)[C@@H](O)[C@H](O)CO [galactose, reference compound]",Interference with the binding of Ad37 to sialic acid expressing cells,[1],did not interfere with the binding
"OC[C@H]1O[C@@H](O[C@H]2[C@H](O)[C@@H](O)C(O)O[C@@H]2CO)[C@H](O)[C@@H](O)[C@H]1O (stereo partly drawn) [lactose, reference compound]",Interference with the binding of Ad37 to sialic acid expressing cells,[1],did not interfere with the binding
CC(=O)N[C@H]1[C@H]([C@H](O)[C@H](O)CO)O[C@@](OC[C@H]2O[C@@H](O[C@H]3[C@H](O)[C@@H](NC(C)=O)C(O)O[C@@H]3CO)[C@H](O)[C@@H](O)[C@H]2O)(C(=O)O)C[C@@H]1O (stereo partly drawn) [α-Neu-5Ac-(2-6)-β-D-Gal-(1-4)-D-GlcNAc],Inhibiting binding of Ad37 to sialic acid-expressing cells (in words),[1],effective in inhibiting binding
same,IC50,[1]; [7],7000 µM
CC(=O)NC1C(O)CC(OC2C(O)C(CO)OC(OC3C(O)C(CO)OC(O)C3NC(C)=O)C2O)(C(=O)O)OC1C(O)C(O)CO [α-NeuAc-(2-3)-β-D-Gal-(1-3)-β-GalNAc],Ad37 virus binding to the structure,Ad37 virus,effective for Ad37 virus binding
CC(=O)N[C@H]1[C@H]([C@H](O)[C@H](O)CO)O[C@@](O[C@H]2[C@@H](O)[C@@H](CO)O[C@@H](O[C@H]3[C@H](O)[C@@H](NC(C)=O)C(O)O[C@@H]3CO)[C@@H]2O)(C(=O)O)C[C@@H]1O (stereo partly drawn) [α-NeuNAc-(2-3)-β-D-Gal-(1-4)-D-GlcNAc],Inhibiting binding of Ad37 to sialic acid-expressing cells (in words),[1],effective in inhibiting binding
same,IC50,[1]; [7],5000 µM
Colominic acid,Inhibiting binding of Ad37 to sialic acid-expressing cells (in words),[1],effective in inhibiting binding
same,Maximal inhibition of Ad37 binding in %,[1]; 160 mM carbohydrate,79%
Fetuin: sialylated glycoprotein,Maximal inhibition of Ad37 binding in %,[1]; 500 μM glycoprotein,62%
same,IC50,[1]; [9],420 µM
GalNAcβ4(NeuAcα3)Galβ4Glcβ1 [NeuAcGM2],Ad37 virus binding to the structure,Ad37 virus,effective for Ad37 virus binding
GalNAcβ4(NeuAcα8NeuAcα3)Galβ4Glcβ1 [NeuAc-GD2],Ad37 virus binding to the structure,Ad37 virus,effective for Ad37 virus binding
Galβ3GalNAcβ4(NeuAcα8NeuAcα3)Galβ4Glcβ1 [NeuAc-GD1b],Ad37 virus binding to the structure,Ad37 virus,effective for Ad37 virus binding
Mucin,Maximal inhibition of Ad37 binding in %,[1]; 500 μM glycoprotein,89%
same,IC50,[1]; [9],8 µM
same,Inhibiting adenoviral adhesion,adenoviral adhesion,very effective
N-acetyl-neuraminyllactose,Inhibiting binding of Ad37 to sialic acid-expressing cells (in words),[1],effective in inhibiting binding
same,Maximal inhibition of Ad37 binding in %,[1]; 160 mM carbohydrate,95%
same,Inhibition of Ad37 binding (in words),[1]; 160 mM concentration,almost total inhibition
same,IC50,[1]; [7],5000 µM
NeuAcα3Galβ3GalNAcβ4(NeuAcα3)Galβ4Glcβ1 [NeuAc-GD1a],Ad37 virus binding to the structure,Ad37 virus,effective for Ad37 virus binding
"Orosomucoid: sialylated, negatively charged glycoprotein",Maximal inhibition of Ad37 binding in %,[1]; 500 μM glycoprotein,77%
same,IC50,[1]; [9],75 µM
dextran sulphate,Impairment of Ad37 binding by negatively charged molecules,[2],could impair binding of the virus
heparan sulphates,Impairment of Ad37 binding by negatively charged molecules,[2],could impair binding of the virus
heparin,Maximal inhibition of binding in %,"[1]; adenovirus type 37, 670 μM heparin",87%
same,IC50,"[1]; adenovirus type 37, Chang C conjunctival cells, read-out: Concentration of heparin causing 50% inhibition of binding",20 µM
same,Impairment of Ad37 binding by negatively charged molecules,[2],could impair binding of the virus
same,Maximal inhibition of binding in %,[3]; 670 μM heparin,90%
same,IC50,"[3]; Chang C conjunctival cells, read-out: Concentration of heparin causing 50% inhibition of binding",25 µM
same,Maximal inhibition of binding in %,"[4]; adenovirus type 8, 670 μM heparin",92%
same,IC50,"[4]; adenovirus type 8, Chang C conjunctival cells, read-out: Concentration of heparin causing 50% inhibition of binding",30 µM
wheat germ agglutinin,Inhibition/blocking of Ad37 binding,[5],blocked the binding
same,Inhibition of Ad37 binding to A549 cells,[6],is inhibited
"Glycophorin A: sialylated glycoprotein (protein, UniProt P02724 20-150, looked up) Glycophorin-A: LSTTEVAMHTSTSSSVTKSYISSQTNDTHKRDTYAATPRAHEVSEISVRTVYPPEEETGERVQLAHHFSEPEITLIIFGVMAGVIGTILLISYGIRRLIKKSPSDVKPLPSPDTDVPLSSVEIENPETSDQ",Maximal inhibition of Ad37 binding in %,[1]; 500 μM glycoprotein,45%
same,IC50,[1]; [9],> 500 µM
